In patent US20240376099A1, “COMPOUNDS AND COMPOSITIONS AS INHIBITORS OF ENDOSOMAL TOLL-LIKE RECEPTORS” (Novartis AG, priority 2016, published 2024) one finds IC50 data, which are given here for 19 compounds.

Bounds are passed on as bounds.

The test deals with T1, TLR8 (Homo sapiens, UniProt Q9NR97).
T1 sequence (Q9NR97 27-1041): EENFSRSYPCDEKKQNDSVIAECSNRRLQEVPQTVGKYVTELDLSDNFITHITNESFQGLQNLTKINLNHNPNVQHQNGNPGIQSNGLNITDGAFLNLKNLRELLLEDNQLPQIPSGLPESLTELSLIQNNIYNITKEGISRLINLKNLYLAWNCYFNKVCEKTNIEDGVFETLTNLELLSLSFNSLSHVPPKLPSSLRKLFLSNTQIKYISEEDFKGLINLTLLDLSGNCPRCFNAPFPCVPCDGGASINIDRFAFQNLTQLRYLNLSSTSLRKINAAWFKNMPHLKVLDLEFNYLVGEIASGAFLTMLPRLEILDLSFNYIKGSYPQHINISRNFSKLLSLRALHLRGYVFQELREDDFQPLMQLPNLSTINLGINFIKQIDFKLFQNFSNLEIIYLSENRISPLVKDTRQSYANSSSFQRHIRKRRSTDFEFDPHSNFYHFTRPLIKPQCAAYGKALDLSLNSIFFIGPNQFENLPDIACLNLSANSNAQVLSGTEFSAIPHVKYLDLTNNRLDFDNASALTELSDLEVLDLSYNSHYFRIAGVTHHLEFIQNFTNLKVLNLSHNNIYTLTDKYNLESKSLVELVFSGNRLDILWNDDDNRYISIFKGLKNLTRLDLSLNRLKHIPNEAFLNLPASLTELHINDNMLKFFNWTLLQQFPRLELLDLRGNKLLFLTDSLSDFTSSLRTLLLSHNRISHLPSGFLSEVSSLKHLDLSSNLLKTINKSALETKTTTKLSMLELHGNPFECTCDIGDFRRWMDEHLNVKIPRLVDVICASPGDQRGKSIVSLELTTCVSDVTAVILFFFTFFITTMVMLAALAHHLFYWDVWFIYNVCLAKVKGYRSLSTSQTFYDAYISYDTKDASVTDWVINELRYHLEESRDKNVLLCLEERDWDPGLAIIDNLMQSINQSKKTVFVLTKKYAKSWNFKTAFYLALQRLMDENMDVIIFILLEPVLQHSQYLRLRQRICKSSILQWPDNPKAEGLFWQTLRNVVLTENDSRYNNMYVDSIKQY
The test is described as follows: huPBMC TLR8 Antagonist IL-6 TR-FRET Assay. In kind it is cell-based. Also on record: Fresh blood was collected from normal human donors; endogenous in cells; host or cells: human PBMCs from fresh donor blood. The conditions noted are these: human PBMCs stimulated with ssRNA40 1 μg/ml (DOTAP), 14-16 hrs; IL-6 TR-FRET read-out. An outline of the steps:
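Human PBMCs from fresh donor blood (150,000 cells/well) stimulated 14–16 h at 37 °C with DOTAP-complexed ssRNA40 (final 1 μg/ml for TLR8, 10 μg/mL for TLR7) or ODN2216 (final 0.3 μM, TLR9), 0.25% DMSO, ten-point 1/3 compound dilutions. Supernatant IL-6 read by HTRF (TLR8); IFNα by IFNα2b AlphaLISA (TLR7/TLR9).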
For orientation: TR-FRET usually uses a lanthanide donor and a delayed reading to cut background.
In the case of `[2H]C([2H])([2H])N(C([2H])([2H])[2H])C12CCC(Cn3nc(C)c4c3CCN(c3nc(C)nc5c(C)nn(C)c35)C4)(CC1)CC2` [compound 40, 4-((3-methyl-5-(1,3,5-trimethyl-1H-pyrazolo[4,3-d]pyrimidin-7-yl)-4,5,6,7-tetrahydro-1H-pyrazolo[4,3-c]pyridin-1-yl)methyl)-N,N-bis(trideuteromethyl)bicyclo[2.2.2]octan-1-amine], the IC50 (as a rule, the concentration at which inhibition is half-maximal) was 0.314 µM.

As to `Cc1nn(CC23CCC(N)(CC2)CC3)c2c1CN(c1ccnc3[nH]ncc13)CC2` [compound 41, 4-((3-methyl-5-(1H-pyrazolo[3,4-b]pyridin-4-yl)-4,5,6,7-tetrahydro-1H-pyrazolo[4,3-c]pyridin-1-yl)methyl)bicyclo[2.2.2]octan-1-amine], the IC50 stood at 4.59 µM.

Regarding `Cc1c2c(nn1CC13CCC(N)(CC1)CC3)CCN(c1ccnc3[nH]ncc13)C2` [compound 42, 4-((3-methyl-5-(1H-pyrazolo[3,4-b]pyridin-4-yl)-4,5,6,7-tetrahydro-2H-pyrazolo[4,3-c]pyridin-2-yl)methyl)bicyclo[2.2.2]octan-1-amine], the IC50 is over 10 µM.

In the case of `Cc1cc(N2CCc3c(c(C)nn3CC34CCC(N)(CC3)C4)C2)c2cnn(C)c2n1` [compound 44, 4-((5-(1,6-dimethyl-1H-pyrazolo[3,4-b]pyridin-4-yl)-3-methyl-4,5,6,7-tetrahydro-1H-pyrazolo[4,3-c]pyridin-1-yl)methyl)bicyclo[2.2.1]heptan-1-amine], the IC50 was 0.861 µM.

Regarding `Cc1cc(N2CCc3c(c(C(F)(F)F)nn3CC34CCC(N)(CC3)CC4)C2)c2cnn(C)c2n1` [compound 45, 4-((5-(1,6-dimethyl-1H-pyrazolo[3,4-b]pyridin-4-yl)-3-(trifluoromethyl)-4,5,6,7-tetrahydro-1H-pyrazolo[4,3-c]pyridin-1-yl)methyl)bicyclo[2.2.2]octan-1-amine], the IC50 was found to be 0.63 µM.

As for `Cc1cc(N2CCc3c(c(C)nn3CC34CCC(NCC(=O)N5CCCCC5)(CC3)CC4)C2)c2cnn(C)c2n1` [compound 99, 2-((4-((5-(1,6-dimethyl-1H-pyrazolo[3,4-b]pyridin-4-yl)-3-methyl-4,5,6,7-tetrahydro-1H-pyrazolo[4,3-c]pyridin-1-yl)methyl)bicyclo[2.2.2]octan-1-yl)amino)-1-(piperidin-1-yl)ethanone], the IC50 was 0.13 µM.

Regarding `Cc1cc(N2CCc3c(c(C)nn3CC34CCC(NC(=O)CN5CCCC5)(CC3)CC4)C2)c2cnn(C)c2n1` [compound 100, N-(4-((5-(1,6-dimethyl-1H-pyrazolo[3,4-b]pyridin-4-yl)-3-methyl-4,5,6,7-tetrahydro-1H-pyrazolo[4,3-c]pyridin-1-yl)methyl)bicyclo[2.2.2]octan-1-yl)-2-(pyrrolidin-1-yl)acetamide], the IC50 came to 0.015 µM.

Turning to `COCCNC12CCC(Cn3nc(C)c4c3CCN(c3cc(C)nc5c3cnn5C)C4)(CC1)OC2` [compound 102, 1-((5-(1,6-dimethyl-1H-pyrazolo[3,4-b]pyridin-4-yl)-3-methyl-4,5,6,7-tetrahydro-1H-pyrazolo[4,3-c]pyridin-1-yl)methyl)-N-(2-methoxyethyl)-2-oxabicyclo[2.2.2]octan-4-amine], the IC50 turned out to be 0.366 µM.

In the case of `Cc1cc(N2CCc3c(c(C)nn3CC34CCC(NC(=O)CCN(C)C)(CC3)CC4)C2)c2cnn(C)c2n1` [compound 105, N-(4-((5-(1,6-dimethyl-1H-pyrazolo[3,4-b]pyridin-4-yl)-3-methyl-4,5,6,7-tetrahydro-1H-pyrazolo[4,3-c]pyridin-1-yl)methyl)bicyclo[2.2.2]octan-1-yl)-3-(dimethylamino)propanamide], the IC50 worked out at 0.027 µM.

As for `Cc1cc(N2CCc3c(c(C)nn3CC34CCC(NCC(=O)N5CCCC5)(CC3)CC4)C2)c2cnn(C)c2n1` [compound 106, 2-((4-((5-(1,6-dimethyl-1H-pyrazolo[3,4-b]pyridin-4-yl)-3-methyl-4,5,6,7-tetrahydro-1H-pyrazolo[4,3-c]pyridin-1-yl)methyl)bicyclo[2.2.2]octan-1-yl)amino)-1-(pyrrolidin-1-yl)ethanone], the IC50 came out at 0.168 µM.

In the case of `Cc1cc(N2CCc3c(c(C)nn3CC34CCC(N5CCO[C@H](C)C5)(CC3)CC4)C2)c2cnn(C)c2n1` [compound 107, (R)-4-(4-((5-(1,6-dimethyl-1H-pyrazolo[3,4-b]pyridin-4-yl)-3-methyl-4,5,6,7-tetrahydro-1H-pyrazolo[4,3-c]pyridin-1-yl)methyl)bicyclo[2.2.2]octan-1-yl)-2-methylmorpholine], the IC50 amounted to 0.006 µM.

For `Cc1cc(N2CCc3c(c(C)nn3CC34CCC(N5CCO[C@@H](C)C5)(CC3)CC4)C2)c2cnn(C)c2n1` [compound 109, (S)-4-(4-((5-(1,6-dimethyl-1H-pyrazolo[3,4-b]pyridin-4-yl)-3-methyl-4,5,6,7-tetrahydro-1H-pyrazolo[4,3-c]pyridin-1-yl)methyl)bicyclo[2.2.2]octan-1-yl)-2-methylmorpholine], the IC50 came out at 0.016 µM.

As for `Cc1cc(N2CCc3c(c(C)nn3CC34CCC(N5C[C@@H](C)O[C@@H](C)C5)(CC3)CC4)C2)c2cnn(C)c2n1` [compound 110, (2S,6R)-4-(4-((5-(1,6-dimethyl-1H-pyrazolo[3,4-b]pyridin-4-yl)-3-methyl-4,5,6,7-tetrahydro-1H-pyrazolo[4,3-c]pyridin-1-yl)methyl)bicyclo[2.2.2]octan-1-yl)-2,6-dimethylmorpholine], the IC50 is 0.016 µM.

Regarding `Cc1cc(N2CCc3c(c(C)nn3CC34CCC(N5C[C@H](C)O[C@@H](C)C5)(CC3)CC4)C2)c2cnn(C)c2n1` [compound 111, (2S,6S)-4-(4-((5-(1,6-dimethyl-1H-pyrazolo[3,4-b]pyridin-4-yl)-3-methyl-4,5,6,7-tetrahydro-1H-pyrazolo[4,3-c]pyridin-1-yl)methyl)bicyclo[2.2.2]octan-1-yl)-2,6-dimethylmorpholine], the IC50 turned out to be 0.039 µM.

As to `Cc1cc(N2CCc3c(c(C)nn3CC34CCC(NCC5CCC5)(CC3)CO4)C2)c2cnn(C)c2n1` [compound 112, N-(cyclobutylmethyl)-1-((5-(1,6-dimethyl-1H-pyrazolo[3,4-b]pyridin-4-yl)-3-methyl-4,5,6,7-tetrahydro-1H-pyrazolo[4,3-c]pyridin-1-yl)methyl)-2-oxabicyclo[2.2.2]octan-4-amine], the IC50 turned out to be 0.056 µM.

As to `Cc1cc(N2CCc3c(c(C)nn3CC34CCC(N5C[C@@H](C)O[C@H](C)C5)(CC3)CC4)C2)c2cnn(C)c2n1` [compound 113, (2R,6R)-4-(4-((5-(1,6-dimethyl-1H-pyrazolo[3,4-b]pyridin-4-yl)-3-methyl-4,5,6,7-tetrahydro-1H-pyrazolo[4,3-c]pyridin-1-yl)methyl)bicyclo[2.2.2]octan-1-yl)-2,6-dimethylmorpholine], the IC50 came to 0.016 µM.

Consider `CCNCC(=O)NC12CCC(Cn3nc(C)c4c3CCN(c3cc(C)nc5c3cnn5C)C4)(CC1)CC2` [compound 114, N-(4-((5-(1,6-dimethyl-1H-pyrazolo[3,4-b]pyridin-4-yl)-3-methyl-4,5,6,7-tetrahydro-1H-pyrazolo[4,3-c]pyridin-1-yl)methyl)bicyclo[2.2.2]octan-1-yl)-2-(ethylamino)acetamide], for which the IC50 was found to be 0.015 µM.

For the compound `Cc1cc(N2CCc3c(c(C)nn3CC34CCC(NC(=O)CCN)(CC3)CC4)C2)c2cnn(C)c2n1` [compound 115, 3-amino-N-(4-((5-(1,6-dimethyl-1H-pyrazolo[3,4-b]pyridin-4-yl)-3-methyl-4,5,6,7-tetrahydro-1H-pyrazolo[4,3-c]pyridin-1-yl)methyl)bicyclo[2.2.2]octan-1-yl)propanamide], the IC50 turned out to be 0.245 µM.

Take `Cc1cc(N2CCc3c(c(C)nn3CC34CCC(N5CC6(COC6)C5)(CC3)CC4)C2)c2cnn(C)c2n1` [compound 116, 6-(4-((5-(1,6-dimethyl-1H-pyrazolo[3,4-b]pyridin-4-yl)-3-methyl-4,5,6,7-tetrahydro-1H-pyrazolo[4,3-c]pyridin-1-yl)methyl)bicyclo[2.2.2]octan-1-yl)-2-oxa-6-azaspiro[3.3]heptane]: the half-inhibitory concentration (IC50) is 0.068 µM.
